Reference: patent US20170137473A1, “FLUOROGEN ACTIVATING AND SHIFTING TAG (FAST)” (PARIS SCIENCES ET LETTRE - QUARTIER LATIN, priority 2014, published 2017)

Tests used:
zebrafish embryos = test: Fitness of zebrafish embryos incubated with HMBR during development; format: in vivo; settings: incubation from 50% epiboly to 24 hpf; data not shown
Y-FAST [1] = target: T1, Y-FAST (Halorhodospira halophila, UniProt P16113, C69G/D97P/F96I/M100R/Q99S/T101G/T95M/Y94W/Y98T); format: cell-based
T1 construct: expressed in transfected cells; host or cells: HeLa cells, transiently transfected (pAG96, pIRES vector)
Experimental: FIG. 21 is a set of graphs and images showing that Y-FAST fluorescence can be switched on and off by addition and withdrawal of the fluorogenic ligand. (a,b) HeLa cells expressing mCherry-Y-FAST were grown in a microfluidic channel and repeatedly incubated with HMBR-containing culture medium for 20 s and HMBR-free culture medium for 40 s. A multifunctional fluidic controller enabled several cycles of labeling/unlabeling. […] (a) Confocal timelapse showing two cycles of labeling/unlabeling (Ex/Em 488/493-575 nm). (b) Temporal evolution of the cell fluorescence upon addition (+) and removal (−) of HMBR. (c) Confocal micrographs of live HeLa cells expressing Dronpa-NLS (nucleus) and lyn11-Y-FAST (membrane) showing sequential imaging of nuclear Dronpa and membrane-anchored Y-FAST thanks to sequential on/off labeling of Y-FAST intercalated with on/off photoswitching of Dronpa (Ex/Em 488/493-797 nm). […] Scale bars 10 μm.
FIG. 22 is a set of graphs and images showing that Y-FAST enables the control of the density of fluorescent labeling independently of the expression level. […] Data represents mean±SD (n=15).
A rapid prototyping technique has been used for the device fabrication. A digital cutting machine (Graphtec, CE6000) was used to produce a 0.5 mm wide microfluidic channel in a 0.5 mm thick silicone layer, which was supported by a 50 μm thick plastic film. After removing the plastic film and oxygen plasma treatment, the silicone layer was bonded to a 5 mm thick layer of polydimethylsiloxane (PDMS) which was prepared by casting a mixture of A and B components of RTV 615 (GE, France) at a 10:1 w/w ratio on a flat silicon wafer and curing it at 80° C. for 2 h. Then, inlet and outlet holes were punched with a metal tube for connections. Afterward, the silicone-PDMS complex was bonded to a 160 μm thick cover slide after oxygen plasma treatment. Finally, the whole device was put in a 80° C. oven for 10 min. Before cell seeding, the device was sterilized under UV exposure for more than 30 min. […]

Y-FAST [2] = target: T1, Y-FAST; test: Labeling of Y-FAST in living cells (yeast, E. coli, HeLa) by flow cytometry; format: cell-based
Experimental: (§1) Flow cytometry analysis was performed on an Accuri C6 (BD Biosciences). Confocal micrographs were acquired on a Zeiss LSM 710 Laser Scanning Microscope equipped with a Plan Apochromat 63×/1.4 NA oil immersion objective. ZEN software was used to collect the data. Images were analyzed with Image J. Spinning-disk confocal micrographs were acquired on a Nikon Eclipse Ti microscope equipped with a 4×/0.15 N.A objective and a coolSnap HQ2/CDDcamera (Princeton Instrument). Metamorph premier 7.6 software (Molecular Devices) was used to collect the data.
(§2) Labeling of Y-FAST with HBR and HMBR in cells was then analyzed by flow cytometry in three different expression systems: yeast, E. coli and mammalian cells (HeLa cells). The fluorescence was compared to wild-type cells or cells expressing wild-type PYP. […] The performance and selectivity of Y-FAST labeling in mammalian cells, yeast and bacteria was furthermore confirmed by confocal microscopy (FIG. 14d and FIGS. 15 c to f and FIG. 16).

HeLa cells = test: LIVE/DEAD viability assay (calceinAM, EthD1) of HeLa cells; format: cell-based; settings: incubated 5 h at 5, 10 and 20 μM; concentrations used for imaging
Experimental: Cell viability was tested by using calceinAM and EthD1 (LIVE/DEAD® viability/cytotoxicity assay kit). CalceinAM is a cell-permeant profluorophore cleaved by intracellular esterases releasing the green fluorescent polyanionic calcein in live cells. EthD1 (Ethidium homodimer 1) is a non cell-permeant nucleic acid red fluorescent stain that enters only cells with damaged membranes and undergoes a fluorescence enhancement upon binding to nucleic acids, thereby producing a bright red fluorescence in dead cells. Control experiments with HeLa cells non-incubated with dye (top left, live control) or incubated for 1 h with 1% hydrogen peroxyde (top right, dead control) are shown. Cell fluorescence was evaluated by confocal microscopy.

[3] = test system: wild-type bacteria, yeast and mammalian cells; test: Fluorescence background of fluorogen in wild-type cells (flow cytometry, confocal); format: cell-based
Experimental: as §1, §2

wild-type PYP = target: T2, wild-type PYP (Halorhodospira halophila, UniProt P16113, C69G); test: Fluorogen labeling of cells expressing wild-type PYP; format: cell-based
T2 construct: fusion partner differs by host: Aga2p (yeast surface display, pAG14); His-tag-ENLYFQG (E. coli, pET28a); expressed in transfected cells
Experimental: as §1, §2

T1 sequence (P16113 whole entry C69G/Y94W/T95M/F96I/D97P/Y98T/Q99S/M100R/T101G): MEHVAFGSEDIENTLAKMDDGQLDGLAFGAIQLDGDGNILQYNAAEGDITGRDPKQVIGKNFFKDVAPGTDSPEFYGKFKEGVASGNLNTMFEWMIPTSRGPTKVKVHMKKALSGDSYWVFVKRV
T2 sequence (P16113 whole entry C69G, the tested form may be a part): as the sequence (P16113 whole entry C69G/Y94W/T95M/F96I/D97P/Y98T/Q99S/M100R/T101G) above, with W94Y, M95T, I96F, P97D, T98Y, S99Q, R100M, G101T counted along it

Cc1cc(/C=C2\SC(=S)NC2=O)ccc1O [HMBR, (Z)-5-(4-hydroxy-3-methylbenzylidene)-2-thioxo-1,3-thiazolidin-4-one]
toxicity for zebrafish embryos (mortality, development) (zebrafish embryos): did not induce any mortality or perturbation in the development
time of labeling in cells (Y-FAST [1]; 5 μM HMBR, microfluidic channel): within about ten seconds
concentration sufficient for full labeling in cells (Y-FAST [1]; HeLa cells expressing mCherry-Y-FAST): 1 µM
cell permeability (Y-FAST [1]; inferred from labeling time in HeLa cells): good cell permeability
fluorescent labeling of Y-FAST in living cells, comparison (Y-FAST [2]): outperforms HBR
toxicity for HeLa cells (HeLa cells): non-toxic
fluorescence background in wild-type cells [3]: no or negligible fluorescence background
binding to wild-type PYP (wild-type PYP): do not bind
